Values quoted from earlier work, collected in article PMC6207715, “Determination of extended substrate specificity of the MALT1 as a strategy for the design of potent substrates and activity-based probes” (Scientific Reports, 2018).

What was measured:
Conditions in all cases: cited from earlier work
MALT1 = molecular target: T1, MALT1 (Homo sapiens, UniProt Q9UDY8)
T1 sequence (Q9UDY8 1-824): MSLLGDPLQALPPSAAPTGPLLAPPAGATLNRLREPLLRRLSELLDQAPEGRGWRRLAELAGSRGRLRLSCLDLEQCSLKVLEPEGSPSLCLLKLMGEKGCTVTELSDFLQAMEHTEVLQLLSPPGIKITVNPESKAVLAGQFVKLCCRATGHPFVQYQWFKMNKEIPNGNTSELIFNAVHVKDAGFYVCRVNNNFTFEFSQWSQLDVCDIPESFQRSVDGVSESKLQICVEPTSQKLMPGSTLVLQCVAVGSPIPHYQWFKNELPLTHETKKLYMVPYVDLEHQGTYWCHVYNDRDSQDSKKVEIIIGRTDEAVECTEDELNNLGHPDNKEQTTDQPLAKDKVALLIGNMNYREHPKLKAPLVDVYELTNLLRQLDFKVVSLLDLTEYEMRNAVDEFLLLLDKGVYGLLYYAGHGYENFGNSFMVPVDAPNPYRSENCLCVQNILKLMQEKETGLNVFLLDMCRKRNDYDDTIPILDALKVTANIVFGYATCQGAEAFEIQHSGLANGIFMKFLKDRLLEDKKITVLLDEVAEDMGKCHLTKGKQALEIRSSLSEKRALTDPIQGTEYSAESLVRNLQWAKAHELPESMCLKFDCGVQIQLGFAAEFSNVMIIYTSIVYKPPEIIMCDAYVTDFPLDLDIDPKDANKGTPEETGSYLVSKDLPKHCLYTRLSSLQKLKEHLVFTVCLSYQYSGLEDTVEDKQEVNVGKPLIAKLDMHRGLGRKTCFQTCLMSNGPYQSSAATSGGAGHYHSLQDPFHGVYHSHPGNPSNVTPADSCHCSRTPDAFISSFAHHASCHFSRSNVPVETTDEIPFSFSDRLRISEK
Excerpt: (§1) Z-VRPR-FMK, which was originally designed as a plant metacaspase inhibitor[3], is the most frequently used MALT1 inhibitor and binds covalently to the MALT1 active site. Mepazine is another inhibitor of MALT1, but functions in a noncovalent and reversible manner, limiting its usefulness in studying the enzyme. […] Hachmann et al. described the first tetrapeptidic MALT1-activity-based probe, which was characterized by medium potency (kobs/I = 9, 300 M^−1s^−1)[2 ...

caspase -3 = system: caspase -3
Excerpt: as §1

caspase -8 = system: caspase -8
Excerpt: as §1

caspase -9 = system: caspase -9
Excerpt: as §1

**Q.** Which results are given for COCCOc1nc(-c2ccc(Cl)c(Cl)c2)n(-c2ccc(NC(=O)CCl)cc2)n1 [MI-2]?
**A.** IC50 (MALT1): 5.84 µM; activity toward caspase -3 (caspase -3): exhibits activity; activity toward caspase -8 (caspase -8): exhibits activity; activity toward caspase -9 (caspase -9): exhibits activity
